Test results taken from patent publication US12606541B2, “PPARg modulators and methods of use” (Eisai R&D Management Co., Ltd., priority 2020, dated 2026).

Experiments:
His6-TEV-PPARγ-(234-505) = target: T1, His6-TEV-PPARγ-(234-505) (Homo sapiens, UniProt P37231); test: TR-FRET Assay to Measure Co-R Peptide Recruitment to PPARγ; type: biochemical; conditions: Co-R peptide (SMRT-ID2) recruitment; top final concentration 20 μM; read-out: TR-FRET i-Ag; AC50
T1 construct: The His6-TEV-PPARγ-(234-505) protein for assay was expressed and purified; TEV cleavage site (N); made in house
T1 sequence (P37231 234-505): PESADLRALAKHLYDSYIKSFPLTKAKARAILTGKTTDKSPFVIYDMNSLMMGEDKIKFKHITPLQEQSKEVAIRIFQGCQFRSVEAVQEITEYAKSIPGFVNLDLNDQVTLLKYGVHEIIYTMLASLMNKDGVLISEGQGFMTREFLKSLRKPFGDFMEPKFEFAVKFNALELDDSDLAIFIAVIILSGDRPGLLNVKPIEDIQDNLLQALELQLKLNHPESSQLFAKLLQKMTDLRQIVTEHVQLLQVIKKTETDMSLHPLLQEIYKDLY
How it was run: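 Corepressor recruitment is measured by adding terbium-labeled anti-His antibody and FITC SMRT-ID2 peptide, at 5 and 200 nM final, after a 20-minute room-temperature protein–compound incubation. After one further hour, signal is converted to percent response between DMSO and 500 nM T0070907 wells.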

UM-UC-9 engineered cells = test: Cell proliferation / short-term viability assay, CellTiter-Glo 144 h; type: cell-based, human; conditions: Homo sapiens, UM-UC-9, 144 h, read-out: CTGlo 144 h UMUC9.5, G150
How it was run: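 Viability read by CellTiter-Glo 2.0 luminescence at day 7 versus DMSO-vehicle wells and a T0 plate measured on day 0. Cells: UM-UC-9 engineered assay-ready stocks, 500 cells/well in high-glucose DMEM with 10% FBS, 37° C, 5% CO2.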

## COc1cc(-c2cc(C(=O)N3CCC(C(=O)NCc4ccc5[nH]nc(F)c5c4)CC3)n[nH]2)c(F)cn1 [Example 200, N-((3-fluoro-1H-indazol-5-yl)methyl)-1-(5-(5-fluoro-2-methoxypyridin-4-yl)-1H-pyrazole-3-carbonyl)piperidine-4-carboxamide]
His6-TEV-PPARγ-(234-505)
  AC50: 112 nM
UM-UC-9 engineered cells
  IC50: 71.5 nM

## COc1cc(-c2cc(C(=O)N3CCC(C(=O)NCc4n[nH]c5ccccc45)CC3)n[nH]2)c(Cl)cn1 [Example 201, N-((1H-indazol-3-yl)methyl)-1-(5-(5-chloro-2-methoxypyridin-4-yl)-1H-pyrazole-3-carbonyl)piperidine-4-carboxamide]
His6-TEV-PPARγ-(234-505)
  AC50: 77.5 nM
UM-UC-9 engineered cells
  IC50: 171 nM

## COc1cc(-c2cc(C(=O)N3CCC(C(=O)NCc4c[nH]c5ncccc45)CC3)n[nH]2)c(Cl)cn1 [Example 202, N-((1H-pyrrolo[2,3-b]pyridin-3-yl)methyl)-1-(5-(5-chloro-2-methoxypyridin-4-yl)-1H-pyrazole-3-carbonyl)piperidine-4-carboxamide]
His6-TEV-PPARγ-(234-505)
  AC50: 136 nM
UM-UC-9 engineered cells
  IC50: 1590 nM

## COc1cc(-c2cc(C(=O)N3CCC(C(=O)NCc4ccc5[nH]c(C)cc5c4)CC3)n[nH]2)c(Cl)cn1 [Example 203, 1-(5-(5-chloro-2-methoxypyridin-4-yl)-1H-pyrazole-3-carbonyl)-N-((2-methyl-1H-indol-5-yl)methyl)piperidine-4-carboxamide]
His6-TEV-PPARγ-(234-505)
  AC50: 77.4 nM
UM-UC-9 engineered cells
  IC50: 96.4 nM

## COc1cc(-c2cc(C(=O)N3CCC(C(=O)NCc4ccc5[nH]nc(C)c5c4)CC3)n[nH]2)c(F)cn1 [Example 204, 1-[5-(5-fluoro-2-methoxypyridin-4-yl)-1H-pyrazole-3-carbonyl]-N-[(3-methyl-1H-indazol-5-yl)methyl]piperidine-4-carboxamide]
His6-TEV-PPARγ-(234-505)
  AC50: 20.2 nM
UM-UC-9 engineered cells
  IC50: 83.3 nM

## COc1cc(-c2cc(C(=O)N3CCC(C(=O)Nc4cnn(C(C)C)c4)CC3)n[nH]2)c(Cl)cn1 [Example 205, 1-(5-(5-chloro-2-methoxypyridin-4-yl)-1H-pyrazole-3-carbonyl)-N-(1-isopropyl-1H-pyrazol-4-yl)piperidine-4-carboxamide]
His6-TEV-PPARγ-(234-505)
  AC50: 912 nM
UM-UC-9 engineered cells
  IC50: 3110 nM

## COc1cc(-c2cc(C(=O)N3CCC(C(=O)NCc4ccc5c(ccn5C)c4)CC3)n[nH]2)c(Cl)cn1 [Example 206, 1-(5-(5-chloro-2-methoxypyridin-4-yl)-1H-pyrazole-3-carbonyl)-N-((1-methyl-1H-indol-5-yl)methyl)piperidine-4-carboxamide]
His6-TEV-PPARγ-(234-505)
  AC50: 13.8 nM
UM-UC-9 engineered cells
  IC50: 86.6 nM

## COc1cc(-c2cc(C(=O)N3CCC(C(=O)NC4COc5ccc(Cl)cc54)CC3)n[nH]2)c(Cl)cn1 (stereo not shown) [Example 208, N-(5-chloro-2,3-dihydrobenzofuran-3-yl)-1-(5-(5-chloro-2-methoxypyridin-4-yl)-1H-pyrazole-3-carbonyl)piperidine-4-carboxamide]
His6-TEV-PPARγ-(234-505)
  AC50: 34.7 nM
UM-UC-9 engineered cells
  IC50: 290 nM

## COc1cc(-c2cc(C(=O)N3CCC(C(=O)NCc4nccc(C(F)(F)F)n4)CC3)n[nH]2)c(Cl)cn1 [Example 209, 1-(5-(5-chloro-2-methoxypyridin-4-yl)-1H-pyrazole-3-carbonyl)-N-((4-(trifluoromethyl)pyrimidin-2-yl)methyl)piperidine-4-carboxamide]
His6-TEV-PPARγ-(234-505)
  AC50: 319 nM
UM-UC-9 engineered cells
  IC50: 2370 nM

## COc1cc(-c2cc(C(=O)N3CCC(C(=O)NCc4cn5c(C)cccc5n4)CC3)n[nH]2)c(Cl)cn1 [Example 210, 1-(5-(5-chloro-2-methoxypyridin-4-yl)-1H-pyrazole-3-carbonyl)-N-((5-methylimidazo[1,2-a]pyridin-2-yl)methyl)piperidine-4-carboxamide]
His6-TEV-PPARγ-(234-505)
  AC50: 259 nM
UM-UC-9 engineered cells
  IC50: 1680 nM

## COc1cc(-c2cc(C(=O)N3CCC(C(=O)NCc4ncc(C(F)(F)F)cn4)CC3)n[nH]2)c(Cl)cn1 [Example 211, 1-(5-(5-chloro-2-methoxypyridin-4-yl)-1H-pyrazole-3-carbonyl)-N-((5-(trifluoromethyl)pyrimidin-2-yl)methyl)piperidine-4-carboxamide]
His6-TEV-PPARγ-(234-505)
  AC50: 462 nM
UM-UC-9 engineered cells
  IC50: 3260 nM

## COc1cc(-c2cc(C(=O)N3CCC(C(=O)NCc4cc5cc[nH]c5cn4)CC3)n[nH]2)c(Cl)cn1 [Example 212, N-((1H-pyrrolo[2,3-c]pyridin-5-yl)methyl)-1-(5-(5-chloro-2-methoxypyridin-4-yl)-1H-pyrazole-3-carbonyl)piperidine-4-carboxamide]
His6-TEV-PPARγ-(234-505)
  AC50: 79.2 nM
UM-UC-9 engineered cells
  IC50: 782 nM

## COc1cc(-c2cc(C(=O)N3CCC(C(=O)NCc4cn5cccc(F)c5n4)CC3)n[nH]2)c(Cl)cn1 [Example 214, 1-(5-(5-chloro-2-methoxypyridin-4-yl)-1H-pyrazole-3-carbonyl)-N-((8-fluoroimidazo[1,2-a]pyridin-2-yl)methyl)piperidine-4-carboxamide]
His6-TEV-PPARγ-(234-505)
  AC50: 194 nM
UM-UC-9 engineered cells
  IC50: 1590 nM

## COc1cc(-c2cc(C(=O)N3CCC(C(=O)NCc4ccc5[nH]c(C)nc5c4)CC3)n[nH]2)c(Cl)cn1 [Example 215, 1-(5-(5-chloro-2-methoxypyridin-4-yl)-1H-pyrazole-3-carbonyl)-N-((2-methyl-1H-benzo[d]imidazol-5-yl)methyl)piperidine-4-carboxamide]
His6-TEV-PPARγ-(234-505)
  AC50: 265 nM
UM-UC-9 engineered cells
  IC50: > 5000 nM

## COc1cc(-c2cc(C(=O)N3CCC(C(=O)NCC4(C)OCCCO4)CC3)n[nH]2)c(Cl)cn1 [Example 216, 1-(5-(5-chloro-2-methoxypyridin-4-yl)-1H-pyrazole-3-carbonyl)-N-((2-methyl-1,3-dioxan-2-yl)methyl)piperidine-, 1-carboxamide]
His6-TEV-PPARγ-(234-505)
  AC50: 697 nM
UM-UC-9 engineered cells
  IC50: 3100 nM

## COc1cc(-c2cc(C(=O)N3CCC(C(=O)NCc4cn5cc(C)ccc5n4)CC3)n[nH]2)c(Cl)cn1 [Example 217, 1-(5-(5-chloro-2-methoxypyridin-4-yl)-1H-pyrazole-3-carbonyl)-N-((6-methylimidazo[1,2-a]pyridin-2-yl)methyl)piperidine-4-carboxamide]
His6-TEV-PPARγ-(234-505)
  AC50: 309 nM
UM-UC-9 engineered cells
  IC50: 3630 nM

## COc1cc(-c2cc(C(=O)N3CCC(C(=O)NCc4nn(C)c5ccccc45)CC3)n[nH]2)c(Cl)cn1 [Example 218, 1-(5-(5-chloro-2-methoxypyridin-4-yl)-1H-pyrazole-3-carbonyl)-N-((1-methyl-1H-indazol-3-yl)methyl)piperidine-4-carboxamide]
His6-TEV-PPARγ-(234-505)
  AC50: 13.8 nM
UM-UC-9 engineered cells
  IC50: 138 nM

## COc1cc(-c2cc(C(=O)N3CCC(C(=O)NCc4cn5cc(Cl)ccc5n4)CC3)n[nH]2)c(Cl)cn1 [Example 219, 1-(5-(5-chloro-2-methoxypyridin-4-yl)-1H-pyrazole-3-carbonyl)-N-((6-chloroimidazo[1,2-a]pyridin-2-yl)methyl)piperidine-4-carboxamide]
His6-TEV-PPARγ-(234-505)
  AC50: 94.5 nM
UM-UC-9 engineered cells
  IC50: 1610 nM

## COc1cc(-c2cc(C(=O)N3CCC(C(=O)NCc4ncoc4C(F)(F)F)CC3)n[nH]2)c(Cl)cn1 [Example 221, 1-(5-(5-chloro-2-methoxypyridin-4-yl)-1H-pyrazole-3-carbonyl)-N-((5-(trifluoromethyl)oxazol-4-yl)methyl)piperidine-4-carboxamide]
His6-TEV-PPARγ-(234-505)
  AC50: 279 nM
UM-UC-9 engineered cells
  IC50: 1730 nM

## COc1cc(-c2cc(C(=O)N3CCC(C(=O)NCc4ccc5c(c4)ncn5C)CC3)n[nH]2)c(Cl)cn1 [Example 223, 1-(5-(5-chloro-2-methoxypyridin-4-yl)-1H-pyrazole-3-carbonyl)-N-((1-methyl-1H-benzo[d]imidazol-5-yl)methyl)piperidine-4-carboxamide]
His6-TEV-PPARγ-(234-505)
  AC50: 628 nM
UM-UC-9 engineered cells
  IC50: > 10000 nM
